# According to PubChem BioAssay AID246 (DTP/NCI, 2004):
# “And” between values parts separate entries of the source, which are not always exact repeats. Equal values may be shown once. Toxic doses and inconclusive results are not listed.
# System: BDF1 mice, P1081 chloroleukemia ip, survival T/C
# Assay: NCI In Vivo Anticancer Drug Screen. Data for tumor model P1081 Chloroleukemia (intraperitoneal) in B6D2F1 (BDF1) mice
# Conditions: endpoint: mean survival time, higher = longer survival
# Protocol: The antitumor activity of compounds was measured in mice bearing transplantable tumors. Survival or tumor size were measured and the results are expressed as the measurement made in the treated group (T) divided by the measurement made in the vehicle treated control group (C). The tumor model used in this assay is P1081 Chloroleukemia (intraperitoneal) in B6D2F1 (BDF1) mice
# [1] = dose: 200.0 mg/kg/injection, schedule: Q01DX Z (ip), vehicle: other
# [2] = dose: 25.0 mg/kg/injection, schedule: Q01DX010 (ip), vehicle: saline
# [3] = dose: 50.0 mg/kg/injection, schedule: Q01DX010 (ip), vehicle: saline
# [4] = dose: 8.0 mg/kg/injection, schedule: Q01DX010 (ip), vehicle: saline
smiles,measurement,setting,value
Cc1n[nH]c(=O)[nH]c1=O,T/C,[1],98 % of control
same,T/C,"dose: 400.0 mg/kg/injection, schedule: Q01DX Z (ip), vehicle: other",105 % of control
same,T/C,"dose: 800.0 mg/kg/injection, schedule: Q01DX Z (ip), vehicle: other",106 % of control and 96 % of control
C[N+](C)(C)c1ncnc2nc[nH]c12,T/C,"dose: 3.1 mg/kg/injection, schedule: Q01DX Z (ip), vehicle: carboxymethylcellulose (CMC)",94 % of control
same,T/C,"dose: 6.25 mg/kg/injection, schedule: Q01DX Z (ip), vehicle: carboxymethylcellulose (CMC)",97 % of control
same,T/C,"dose: 12.5 mg/kg/injection, schedule: Q01DX Z (ip), vehicle: carboxymethylcellulose (CMC)",100 % of control
same,T/C,"dose: 100.0 mg/kg/injection, schedule: Q01DX Z (ip), vehicle: carboxymethylcellulose (CMC)",195 % of control
CC1CCOS(=O)O1 (stereo unspecified),T/C,"dose: 2.5 mg/kg/injection, schedule: Q01DX Z (ip), vehicle: carboxymethylcellulose (CMC)",101 % of control
same,T/C,"dose: 5.0 mg/kg/injection, schedule: Q01DX Z (ip), vehicle: carboxymethylcellulose (CMC)",115 % of control
same,T/C,"dose: 10.0 mg/kg/injection, schedule: Q01DX010 (ip), vehicle: saline",115 % of control
same,T/C,"dose: 10.0 mg/kg/injection, schedule: Q01DX Z (ip), vehicle: carboxymethylcellulose (CMC)",86 % of control
same,T/C,"dose: 20.0 mg/kg/injection, schedule: Q01DX010 (ip), vehicle: saline",110 % of control
same,T/C,"dose: 40.0 mg/kg/injection, schedule: Q01DX010 (ip), vehicle: saline",95 % of control
[I][Hg][CH2]C1COC([CH2][Hg][I])CO1 (stereo unspecified),T/C,"dose: 6.25 mg/kg/injection, schedule: Q01DX010 (ip), vehicle: saline",110 % of control
same,T/C,"dose: 7.5 mg/kg/injection, schedule: Q01DX Z (ip), vehicle: carboxymethylcellulose (CMC)",97 % of control
same,T/C,"dose: 12.5 mg/kg/injection, schedule: Q01DX010 (ip), vehicle: saline",95 % of control
same,T/C,"dose: 15.0 mg/kg/injection, schedule: Q01DX Z (ip), vehicle: carboxymethylcellulose (CMC)",119 % of control
same,T/C,[2],90 % of control
same,T/C,"dose: 60.0 mg/kg/injection, schedule: Q01DX Z (ip), vehicle: carboxymethylcellulose (CMC)",88 % of control and 103 % of control
COS(C)(=O)=O,T/C,"dose: 1.6 mg/kg/injection, schedule: Q01DX Z (ip), vehicle: water",94 % of control
same,T/C,"dose: 3.1 mg/kg/injection, schedule: Q01DX Z (ip), vehicle: water",99 % of control
same,T/C,"dose: 6.25 mg/kg/injection, schedule: Q01DX Z (ip), vehicle: water",120 % of control and 103 % of control
same,T/C,"dose: 12.5 mg/kg/injection, schedule: Q01DX Z (ip), vehicle: water",109 % of control
same,T/C,[2],95 % of control
same,T/C,"dose: 25.0 mg/kg/injection, schedule: Q01DX Z (ip), vehicle: water",112 % of control and 98 % of control
same,T/C,[3],115 % of control
same,T/C,"dose: 50.0 mg/kg/injection, schedule: Q01DX Z (ip), vehicle: water",90 % of control
same,T/C,"dose: 100.0 mg/kg/injection, schedule: Q01DX Z (ip), vehicle: water",91 % of control
c1ccc(CNc2ncnc3[nH]ncc23)cc1,T/C,"dose: 0.98 mg/kg/injection, schedule: Q01DX Z (ip), vehicle: carboxymethylcellulose (CMC)",93 % of control
same,T/C,"dose: 1.95 mg/kg/injection, schedule: Q01DX Z (ip), vehicle: carboxymethylcellulose (CMC)",94 % of control
same,T/C,"dose: 3.9 mg/kg/injection, schedule: Q01DX Z (ip), vehicle: carboxymethylcellulose (CMC)",93 % of control
same,T/C,"dose: 7.8 mg/kg/injection, schedule: Q01DX Z (ip), vehicle: carboxymethylcellulose (CMC)",112 % of control
same,T/C,[4],111 % of control
same,T/C,"dose: 16.0 mg/kg/injection, schedule: Q01DX010 (ip), vehicle: saline",111 % of control and 116 % of control
same,T/C,"dose: 32.0 mg/kg/injection, schedule: Q01DX010 (ip), vehicle: saline",111 % of control and 122 % of control
same,T/C,"dose: 64.0 mg/kg/injection, schedule: Q01DX010 (ip), vehicle: saline",111 % of control
S=c1nc[nH]c2nc[nH]c12,T/C,"dose: 1.56 mg/kg/injection, schedule: Q01DX Z (ip), vehicle: other",108 % of control
same,T/C,"dose: 3.12 mg/kg/injection, schedule: Q01DX Z (ip), vehicle: other",120 % of control
same,T/C,"dose: 5.0 mg/kg/injection, schedule: Q01DX010 (ip), vehicle: alkali diluted with saline",110 % of control and 97 % of control
same,T/C,"dose: 10.0 mg/kg/injection, schedule: Q01DX010 (ip), vehicle: alkali diluted with saline",105 % of control and 92 % of control
same,T/C,"dose: 20.0 mg/kg/injection, schedule: Q01DX010 (ip), vehicle: alkali diluted with saline",106 % of control (2×) and 112 % of control
same,T/C,"dose: 40.0 mg/kg/injection, schedule: Q01DX010 (ip), vehicle: alkali diluted with saline",118 % of control and 90 % of control and 103 % of control
same,T/C,"dose: 80.0 mg/kg/injection, schedule: Q01DX010 (ip), vehicle: alkali diluted with saline",108 % of control and 116 % of control
same,T/C,[1],91 % of control and 100 % of control
Cn1cnc([N+](=O)[O-])c1Sc1nc(N)nc2nc[nH]c12,T/C,"dose: 0.25 mg/kg/injection, schedule: Q01DX Z (ip), vehicle: carboxymethylcellulose (CMC)",90 % of control
same,T/C,"dose: 0.5 mg/kg/injection, schedule: Q01DX Z (ip), vehicle: carboxymethylcellulose (CMC)",110 % of control
same,T/C,"dose: 1.0 mg/kg/injection, schedule: Q01DX Z (ip), vehicle: carboxymethylcellulose (CMC)",111 % of control
same,T/C,"dose: 2.0 mg/kg/injection, schedule: Q01DX Z (ip), vehicle: carboxymethylcellulose (CMC)",110 % of control
same,T/C,"dose: 8.0 mg/kg/injection, schedule: Q01DX Z (ip), vehicle: carboxymethylcellulose (CMC)",86 % of control
Cc1cc2nc3c(=O)[nH]c(=O)nc-3n(CC(O)C(O)C(O)C(O)CO)c2cc1C (stereo unspecified),T/C,[3],88 % of control and 100 % of control
same,T/C,"dose: 100.0 mg/kg/injection, schedule: Q01DX010 (ip), vehicle: saline",88 % of control and 90 % of control
same,T/C,"dose: 200.0 mg/kg/injection, schedule: Q01DX010 (ip), vehicle: saline",90 % of control and 100 % of control
same,T/C,"dose: 400.0 mg/kg/injection, schedule: Q01DX010 (ip), vehicle: saline",100 % of control
Oc1cc(CN(CCCl)CCCl)c(O)cc1CN(CCCl)CCCl,T/C,"dose: 0.06 mg/kg/injection, schedule: Q01DX Z (sc), vehicle: steriod suspending solution",101 % of control
same,T/C,"dose: 0.12 mg/kg/injection, schedule: Q01DX Z (sc), vehicle: steriod suspending solution",109 % of control
same,T/C,"dose: 0.24 mg/kg/injection, schedule: Q01DX Z (sc), vehicle: steriod suspending solution",114 % of control
same,T/C,"dose: 0.49 mg/kg/injection, schedule: Q01DX Z (sc), vehicle: steriod suspending solution",172 % of control
same,T/C,"dose: 0.63 mg/kg/injection, schedule: Q01DX010 (ip), vehicle: saline",110 % of control and 100 % of control
same,T/C,"dose: 0.99 mg/kg/injection, schedule: Q01DX Z (sc), vehicle: steriod suspending solution",175 % of control
same,T/C,"dose: 1.25 mg/kg/injection, schedule: Q01DX010 (ip), vehicle: saline",120 % of control and 104 % of control
same,T/C,"dose: 2.5 mg/kg/injection, schedule: Q01DX010 (ip), vehicle: saline",122 % of control
same,T/C,"dose: 3.75 mg/kg/injection, schedule: Q01DX Z (sc), vehicle: steriod suspending solution",104 % of control
same,T/C,"dose: 5.0 mg/kg/injection, schedule: Q01DX010 (ip), vehicle: saline",115 % of control and 118 % of control
same,T/C,"dose: 7.5 mg/kg/injection, schedule: Q01DX Z (sc), vehicle: steriod suspending solution",110 % of control and 101 % of control
O=C(Nc1ccc(NC2=NCCN2)cc1)c1ccc(C(=O)Nc2ccc(NC3=NCCN3)cc2)cc1,T/C,"dose: 2.0 mg/kg/injection, schedule: Q01DX010 (ip), vehicle: saline",161 % of control
same,T/C,"dose: 2.0 mg/kg/injection, schedule: Q01DX Z (ip), vehicle: saline",96 % of control
same,T/C,"dose: 4.0 mg/kg/injection, schedule: Q01DX010 (ip), vehicle: saline",300 % of control and 333 % of control
same,T/C,[4],300 % of control and 333 % of control
same,T/C,"dose: 8.0 mg/kg/injection, schedule: Q01DX Z (ip), vehicle: saline",153 % of control and 171 % of control
same,T/C,"dose: 16.0 mg/kg/injection, schedule: Q01DX Z (ip), vehicle: saline",190 % of control
same,T/C,"dose: 32.0 mg/kg/injection, schedule: Q01DX Z (ip), vehicle: saline",96 % of control
C[C@]12CCC(=O)C=C1CC[C@@H]1[C@@H]2C(=O)C[C@@]2(C)[C@H]1CC[C@]2(O)C(=O)CO,T/C,"dose: 6.25 mg/kg/injection, schedule: Q01DX Z (sc), vehicle: steriod suspending solution",103 % of control
same,T/C,"dose: 12.5 mg/kg/injection, schedule: Q01DX Z (sc), vehicle: steriod suspending solution",102 % of control
same,T/C,"dose: 25.0 mg/kg/injection, schedule: Q01DX Z (sc), vehicle: steriod suspending solution",123 % of control and 102 % of control
same,T/C,"dose: 50.0 mg/kg/injection, schedule: Q01DX Z (sc), vehicle: steriod suspending solution",111 % of control
same,T/C,"dose: 100.0 mg/kg/injection, schedule: Q01DX Z (sc), vehicle: steriod suspending solution",116 % of control
